Data from DBAASP.
Values after ≈ are worked out from the molar mass of the structure shown. Values joined by “and” are separate entries in the source; they are usually repeats but may differ in a detail not shown here. Equal values may be shown once.

Columns and labels:
Assay in all cases: ≥ marks a high value that may be exact or a test limit, other limits are often not marked, values filed in µg/mL are converted to µM
[1] = system: Staphylococcus aureus MRSA-G
[2] = system: Staphylococcus aureus ATCC 25923
[3] = system: Escherichia coli ATCC 25922
[4] = system: Staphylococcus aureus MRSA-16
[5] = system: Klebsiella pneumoniae ATCC 700603
[6] = system: Salmonella enterica subsp. enterica serovar Typhimurium ATCC 14028
[7] = system: Pseudomonas aeruginosa Pa1-SA2
[8] = system: Staphylococcus aureus ATCC 29313
[9] = system: Pseudomonas aeruginosa Pa4-SA2
[10] = system: Pseudomonas aeruginosa PA006
[11] = system: Pseudomonas aeruginosa PAO1
[12] = system: Pseudomonas aeruginosa ATCC 27853
[13] = system: Staphylococcus aureus ATCC 9144
Escherichia coli = system: Escherichia coli
[14] = system: Escherichia coli ATCC 11775
[15] = system: Pseudomonas aeruginosa ATCC 25668
Acinetobacter sp. = system: Acinetobacter sp.
[16] = system: Bacillus subtilis ATCC 6633
Salmonella typhimurium = system: Salmonella typhimurium
Alternaria dauci = system: Alternaria dauci
Escherichia coli D31 = system: Escherichia coli D31
Escherichia coli D22 = system: Escherichia coli D22
[17] = system: Pseudomonas syringae pv. Pisi
Neurospora crassa = system: Neurospora crassa
Trichoderma viride = system: Trichoderma viride
Stemphylium sp. = system: Stemphylium sp.
Fusarium oxysporum M = system: Fusarium oxysporum M
Fusarium culmorum = system: Fusarium culmorum
[18] = system: Pseudomonas syringae pv. Maculicola
[19] = system: Pseudomonas syringae pv. Valerianella
Fusarium haematococcum = system: Fusarium haematococcum
Aspergillus fumigatus = system: Aspergillus fumigatus
Pseudomonas syringae = system: Pseudomonas syringae
Fusarium oxysporum = system: Fusarium oxysporum
Aerococcus viridans = system: Aerococcus viridans
[20] = system: Pseudomonas syringae pv. syringae
Staphylococcus aureus = system: Staphylococcus aureus
Botrytis cinerea = system: Botrytis cinerea
[21] = system: Clavibacter michiganensis subsp. michiganensis
[22] = system: Xanthomonas vesicatoria B229RI
Alternaria brassicicola = system: Alternaria brassicicola
Escherichia coli 1106 = system: Escherichia coli 1106
Micrococcus luteus = system: Micrococcus luteus
[23] = system: Xanthomonas campestris pv. campestris
[24] = system: Xanthomonas vesicatoria 687.3
[25] = system: Pseudomonas syringae pv. phaseolicola
Bacillus subtilis = system: Bacillus subtilis
Fusarium oxysporum L = system: Fusarium oxysporum L
Trichophyton rubrum = system: Trichophyton rubrum
[26] = system: Cryptococcus neoformans L26
Candida albicans 01U = system: Candida albicans 01U
[27] = system: Cryptococcus neoformans L30
Candida albicans 38U = system: Candida albicans 38U
[28] = system: Trichophyton mentagrophytes
Candida parapsilosis = system: Candida parapsilosis

**Q.** What does the source list for `CC[C@H](C)[C@H](NC(=O)[C@H](C)NC(=O)[C@H](CCCCN)NC(=O)[C@@H](NC(=O)CNC(=O)CNC(=O)[C@H](Cc1c[nH]c2ccccc12)NC(=O)[C@H](Cc1ccccc1)NC(=O)[C@H](CCCCN)NC(=O)[C@H](CCCCN)NC(=O)[C@H](Cc1ccccc1)NC(=O)[C@@H](N)Cc1ccccc1)C(C)C)C(=O)N[C@@H](Cc1ccccc1)C(=O)N[C@@H](CCCCN)C(=O)NCC(=O)N[C@@H](C)C(=O)N[C@@H](CCCN=C(N)N)C(=O)N[C@@H](CCCCN)C(=O)NCC(=O)N[C@@H](Cc1c[nH]c2ccccc12)C(=O)N[C@@H](CCCCN)C(=O)O` [FFKKFWGGVKAIFKGARKGWK]?
**A.** MIC [1]: 4 µM (≈ 9.95 µg/mL); MIC [2]: 4 µM and > 2 µM; MIC [3]: 2 µM and > 1 µM; MIC [4]: 4 µM (≈ 9.95 µg/mL)

**Q.** What does the source list for `CC[C@H](C)[C@H](NC(=O)[C@H](CCCCN)NC(=O)CNC(=O)[C@H](CCSC)NC(=O)[C@H](C)NC(=O)[C@H](Cc1cnc[nH]1)NC(=O)[C@H](C)NC(=O)[C@@H](NC(=O)[C@H](CC(C)C)NC(=O)[C@H](CCC(N)=O)NC(=O)[C@H](CCCN=C(N)N)NC(=O)CNC(=O)[C@H](C)NC(=O)[C@H](CC(=O)O)NC(=O)[C@H](CCCCN)NC(=O)[C@@H](NC(=O)[C@@H](NC(=O)[C@H](CC(=O)O)NC(=O)[C@H](Cc1ccccc1)NC(=O)[C@@H](NC(=O)CN)C(C)C)[C@@H](C)CC)[C@@H](C)CC)C(C)C)C(=O)N[C@@H](C)C(=O)N[C@@H](CCC(=O)O)C(=O)N[C@@H](CCCCN)C(=O)N[C@H](C(N)=O)C(C)C` [GVFDIIKDAGRQLVAHAMGKIAEKV]?
**A.** MIC [5]: > 300 µM; MIC [6]: > 300 µM; MIC [7]: ≥ 96 µM; MIC [8]: ≥ 300 µM; MIC [9]: ≥ 48 µM; MIC [10]: 12 µM (≈ 32 µg/mL); MIC [3]: 300 µM (≈ 800 µg/mL); MIC [11]: 192 µM (≈ 512 µg/mL); MIC [12]: > 192 µM

**Q.** With `CC[C@H](C)[C@H](N)C(=O)N[C@@H](CCCCN)C(=O)N[C@@H](Cc1c[nH]c2ccccc12)C(=O)N[C@@H](C)C(=O)NCC(=O)N[C@@H](CCCCN)C(=O)N[C@@H](CC(C)C)C(=O)N[C@@H](Cc1ccccc1)C(=O)N[C@@H](CCCCN)C(=O)N[C@@H](CC(C)C)C(=O)N[C@@H](Cc1ccccc1)C(=O)N[C@@H](CCCCN)C(N)=O` [IKWAGKLFKLFK] as the compound, how does the MIC [13] read?
**A.** 2.7 µM (≈ 4 µg/mL)

**Q.** What about the MIC (Escherichia coli) of the same compound?
**A.** 2.7 µM (≈ 4 µg/mL)

**Q.** And the MIC [14]?
**A.** 0.676 µM (≈ 0.999 µg/mL)

**Q.** What about the MIC [15] of the same compound?
**A.** 5.41 µM (≈ 7.99 µg/mL)

**Q.** What about the MIC (Acinetobacter sp.) of the same compound?
**A.** 21.6 µM (≈ 32 µg/mL)

**Q.** And the MIC [16]?
**A.** 5.41 µM (≈ 7.99 µg/mL)

**Q.** With `CC[C@H](C)[C@@H]1NC(=O)[C@H](CCCCN)NC(=O)[C@H]([C@@H](C)CC)NC(=O)[C@H](CCC(N)=O)NC(=O)[C@H](CCCN=C(N)N)NC(=O)[C@@H](NC(=O)[C@@H](NC(=O)[C@H](CO)NC(=O)[C@@H](N)CCCN=C(N)N)C(C)C)CSSC[C@@H](C(=O)N[C@H](C(=O)N[C@@H](CC(N)=O)C(=O)N[C@@H](CCCN=C(N)N)C(=O)N2CCC[C@H]2C(=O)N[C@@H](Cc2ccc(O)cc2)C(=O)O)[C@@H](C)O)NC(=O)[C@H](CCCCN)NC(=O)[C@H](Cc2ccc(O)cc2)NC(=O)[C@H](Cc2ccc(O)cc2)NC(=O)[C@@H]2CSSC[C@H](NC1=O)C(=O)N[C@@H](CCCN=C(N)N)C(=O)N[C@@H](CCCN=C(N)N)C(=O)N[C@@H](CCCN=C(N)N)C(=O)NCC(=O)NCC(=O)N2` [RSVCRQIKICRRRGGCYYKCTNRPY] as the compound, how does the MIC (Salmonella typhimurium) read?
**A.** 4.24 µM (≈ 13.1 µg/mL)

**Q.** And the MIC (Alternaria dauci)?
**A.** 11.3 µM (≈ 34.8 µg/mL)

**Q.** What about the MIC (Escherichia coli D31) of the same compound?
**A.** 4.24 µM (≈ 13.1 µg/mL)

**Q.** What about the MIC (Escherichia coli D22) of the same compound?
**A.** 30 µM (≈ 92.3 µg/mL)

**Q.** And the MIC [17]?
**A.** 9.49 µM (≈ 29.2 µg/mL)

**Q.** What about the MIC (Neurospora crassa) of the same compound?
**A.** 8.49 µM (≈ 26.1 µg/mL)

**Q.** What about the MIC (Trichoderma viride) of the same compound?
**A.** 8.49 µM (≈ 26.1 µg/mL)

**Q.** And the MIC (Stemphylium sp.)?
**A.** 5.66 µM (≈ 17.4 µg/mL)

**Q.** What about the MIC (Fusarium oxysporum M) of the same compound?
**A.** 2.83 µM (≈ 8.7 µg/mL)

**Q.** And the MIC (Fusarium culmorum)?
**A.** 4.24 µM (≈ 13.1 µg/mL)

**Q.** And the MIC [18]?
**A.** 4.24 µM (≈ 13.1 µg/mL)

**Q.** And the MIC [19]?
**A.** 18.2 µM (≈ 55.9 µg/mL)

**Q.** And the MIC (Fusarium haematococcum)?
**A.** 8.49 µM (≈ 26.1 µg/mL)

**Q.** And the MIC (Aspergillus fumigatus)?
**A.** ≥ 35.4 µM

**Q.** And the MIC (Pseudomonas syringae)?
**A.** 2.12 µM (≈ 6.53 µg/mL)

**Q.** And the MIC (Fusarium oxysporum)?
**A.** 8.49 µM (≈ 26.1 µg/mL)

**Q.** What about the MIC (Aerococcus viridans) of the same compound?
**A.** 0.424 µM (≈ 1.31 µg/mL)

**Q.** And the MIC [20]?
**A.** 18.2 µM (≈ 55.9 µg/mL)

**Q.** What about the MIC (Staphylococcus aureus) of the same compound?
**A.** 21.2 µM (≈ 65.3 µg/mL)

**Q.** What about the MIC (Botrytis cinerea) of the same compound?
**A.** 8.49 µM (≈ 26.1 µg/mL)

**Q.** And the MIC [21]?
**A.** 9.49 µM (≈ 29.2 µg/mL)

**Q.** And the MIC [22]?
**A.** 2.12 µM (≈ 6.53 µg/mL)

**Q.** What about the MIC (Alternaria brassicicola) of the same compound?
**A.** 4.24 µM (≈ 13.1 µg/mL)

**Q.** And the MIC (Escherichia coli 1106)?
**A.** 9.49 µM (≈ 29.2 µg/mL)

**Q.** What about the MIC (Micrococcus luteus) of the same compound?
**A.** 0.949 µM (≈ 2.92 µg/mL)

**Q.** And the MIC [23]?
**A.** 4.24 µM (≈ 13.1 µg/mL)

**Q.** What about the MIC [24] of the same compound?
**A.** 2.12 µM (≈ 6.53 µg/mL)

**Q.** And the MIC [25]?
**A.** 2.12 µM (≈ 6.53 µg/mL)

**Q.** What about the MIC (Bacillus subtilis) of the same compound?
**A.** 2.12 µM (≈ 6.53 µg/mL)

**Q.** And the MIC (Fusarium oxysporum L)?
**A.** 2.83 µM (≈ 8.7 µg/mL)

**Q.** Which results are given for `CC[C@H](C)[C@H](NC(=O)[C@H](CC(C)C)NC(=O)[C@H](CCC(=O)O)NC(=O)[C@H](CO)NC(=O)[C@H](CCCN=C(N)N)NC(=O)[C@@H](N)CO)C(=O)N[C@H](C(=O)N[C@@H](Cc1cnc[nH]1)C(=O)N[C@@H](CCC(N)=O)C(=O)N[C@@H](CCCN=C(N)N)C(=O)N[C@@H](CCSC)C(=O)N[C@@H](CCCCN)C(N)=O)C(C)C` [SRSELIVHQRMK]?
**A.** MIC (Trichophyton rubrum): 21.6 µM (≈ 32 µg/mL); MIC [26]: ≥ 173 µM; MIC (Candida albicans 01U): 21.6 µM (≈ 32 µg/mL); MIC [27]: ≥ 173 µM; MIC (Candida albicans 38U): 21.6 µM (≈ 32 µg/mL); MIC [28]: ≥ 173 µM; MIC (Candida parapsilosis): ≥ 173 µM
